ChEMBL document CHEMBL1201861, “Genomics of Drug Sensitity in Cancer screening data, Wellcome Trust Sanger Institute”

Legend:
Assay in all cases: cells
Assay type in all cases: functional, cell-based, Homo sapiens
D-542MG = tested on: D-542MG
Description: SANGER: Inhibition of human D-542MG cell growth in a cell viability assay.

RPMI-2650 = tested on: RPMI-2650
Description: SANGER: Inhibition of human RPMI-2650 cell growth in a cell viability assay.

NCI-H2291 = tested on: NCI-H2291
Description: SANGER: Inhibition of human NCI-H2291 cell growth in a cell viability assay.

A673 = tested on: A673;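 further: growth inhibition of human A673 cells, read out through a cell viability assay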
Description: SANGER: Inhibition of human A673 cell growth in a cell viability assay.

HTC-C3 = tested on: HTC-C3;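 further: inhibition of cell growth, read out with a cell viability assay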
Description: SANGER: Inhibition of human HTC-C3 cell growth in a cell viability assay.

A 172 = tested on: A 172;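 further: growth inhibition of A172 cells, measured with a cell viability readout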
Description: SANGER: Inhibition of human A172 cell growth in a cell viability assay.

NCI-H1437 = tested on: NCI-H1437;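 further: growth inhibition of human NCI-H1437 cells, read out by a cell viability assay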
Description: SANGER: Inhibition of human NCI-H1437 cell growth in a cell viability assay.

A-427 = tested on: A-427;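 further: growth inhibition of human A-427 cells, read out by a cell viability assay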
Description: SANGER: Inhibition of human A427 cell growth in a cell viability assay.

HuO-3N1 = tested on: HuO-3N1;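 further: cell viability readout used to measure how strongly compounds suppress proliferation of human HuO-3N1 cells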
Description: SANGER: Inhibition of human HuO-3N1 cell growth in a cell viability assay.

KYSE-270 = tested on: KYSE-270;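 further: cell growth inhibition measured with a viability assay in the human KYSE-270 line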
Description: SANGER: Inhibition of human KYSE-270 cell growth in a cell viability assay.

PA-1 = tested on: PA-1;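 further: IC50 for suppression of PA-1 cell proliferation, determined with a cell viability read-out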
Description: SANGER: Inhibition of human PA-1 cell growth in a cell viability assay.

H4 = tested on: H4
Description: SANGER: Inhibition of human H4 cell growth in a cell viability assay.

MG-63 = tested on: MG-63;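 further: growth inhibition of human MG-63 cells, read out with a cell viability assay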
Description: SANGER: Inhibition of human MG-63 cell growth in a cell viability assay.

BCPAP = tested on: BCPAP;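 further: growth inhibition of BCPAP cells, read out in a cell viability assay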
Description: SANGER: Inhibition of human BCPAP cell growth in a cell viability assay.

EPLC-272H = tested on: EPLC-272H
Description: SANGER: Inhibition of human EPLC-272H cell growth in a cell viability assay.

RO82-W-1 = tested on: RO82-W-1;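 further: growth inhibition of human RO82-W-1 cells, measured with a cell viability assay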
Description: SANGER: Inhibition of human RO82-W-1 cell growth in a cell viability assay.

OAW-42 = tested on: OAW-42;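 further: growth inhibition of OAW-42 cells, read out with a cell viability assay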
Description: SANGER: Inhibition of human OAW-42 cell growth in a cell viability assay.

NY = tested on: NY
Description: SANGER: Inhibition of human NY cell growth in a cell viability assay.

CAL-120 = tested on: CAL-120;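 further: cell growth inhibition, read out as cell viability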
Description: SANGER: Inhibition of human CAL-120 cell growth in a cell viability assay.

HCC1937 = tested on: HCC1937;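 further: growth inhibition measured with a cell viability read-out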
Description: SANGER: Inhibition of human HCC1937 cell growth in a cell viability assay.

OE33 = tested on: OE33;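 further: growth inhibition of human OE33 cells, measured by a cell viability assay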
Description: SANGER: Inhibition of human OE33 cell growth in a cell viability assay.

KYSE-70 cell line = tested on: KYSE-70 cell line;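 further: cell viability assay read-out, with IC50 expressing suppression of KYSE-70 cell growth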
Description: SANGER: Inhibition of human KYSE-70 cell growth in a cell viability assay.

NCI-H1993 = tested on: NCI-H1993;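 further: growth inhibition of the cancer cell line, assessed with a cell viability assay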
Description: SANGER: Inhibition of human NCI-H1993 cell growth in a cell viability assay.

SiHa = tested on: SiHa;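 further: Viability-based readout of growth inhibition in SiHa cells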
Description: SANGER: Inhibition of human SiHa cell growth in a cell viability assay.

SBC-5 = tested on: SBC-5;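 further: cell viability assay read-out, IC50 is the concentration that inhibits growth of the cells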
Description: SANGER: Inhibition of human SBC-5 cell growth in a cell viability assay.

KP-4 = tested on: KP-4;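 further: human KP-4 cells, with growth inhibition read out through a cell viability assay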
Description: SANGER: Inhibition of human KP-4 cell growth in a cell viability assay.

VM-CUB-1 = tested on: VM-CUB-1;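 further: cell viability assay measuring growth inhibition of the human VM-CUB-1 cell line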
Description: SANGER: Inhibition of human VM-CUB-1 cell growth in a cell viability assay.

BT-20 = tested on: BT-20;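 further: cell viability assay measuring suppression of growth in human BT-20 cells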
Description: SANGER: Inhibition of human BT-20 cell growth in a cell viability assay.

RMG-I = tested on: RMG-I;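 further: growth inhibition of human RMG-I cells, read out with a cell viability assay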
Description: SANGER: Inhibition of human RMG-I cell growth in a cell viability assay.

SW780 = tested on: SW780;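 further: growth inhibition of the cells, read out with a cell viability assay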
Description: SANGER: Inhibition of human SW780 cell growth in a cell viability assay.

ME-180 = tested on: ME-180;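 further: cell viability assay measuring growth inhibition of ME-180 cells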
Description: SANGER: Inhibition of human ME-180 cell growth in a cell viability assay.

RT-112 = tested on: RT-112
Description: SANGER: Inhibition of human RT-112 cell growth in a cell viability assay.

FTC-133 = tested on: FTC-133
YKG-1 = tested on: YKG-1;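 further: cell growth inhibition, read out with a viability assay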
Description: SANGER: Inhibition of human YKG-1 cell growth in a cell viability assay.

SKG-IIIa = tested on: SKG-IIIa;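 further: cell growth inhibition, read out with a cell viability assay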
Description: SANGER: Inhibition of human SKG-IIIa cell growth in a cell viability assay.

TCC-SUP = tested on: TCC-SUP;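 further: growth inhibition of TCC-SUP cells, read out with a cell viability assay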
Description: SANGER: Inhibition of human TCCSUP cell growth in a cell viability assay.

KU-19-19 = tested on: KU-19-19
Description: SANGER: Inhibition of human KU-19-19 cell growth in a cell viability assay.

Molecule: Cc1cn(-c2cc(NC(=O)c3ccc(C)c(Nc4nccc(-c5cccnc5)n4)c3)cc(C(F)(F)F)c2)cn1 [NILOTINIB]
- IC50 (D-542MG; Homo sapiens, D-542MG): > 2 µM
- IC50 (RPMI-2650; Homo sapiens, RPMI-2650): > 2 µM
- IC50 (NCI-H2291; Homo sapiens, NCI-H2291): > 2 µM
- IC50 (A673; Homo sapiens, A673): > 2 µM
- IC50 (HTC-C3; Homo sapiens, HTC-C3): > 2 µM
- IC50 (A 172; Homo sapiens, A 172): > 2 µM
- IC50 (NCI-H1437; Homo sapiens, NCI-H1437): > 2 µM
- IC50 (A-427; Homo sapiens, A-427): > 2 µM
- IC50 (HuO-3N1; Homo sapiens, HuO-3N1): > 2 µM
- IC50 (KYSE-270; Homo sapiens, KYSE-270): > 2 µM
- IC50 (PA-1; Homo sapiens, PA-1): > 2 µM
- IC50 (H4; Homo sapiens, H4): > 2 µM
- IC50 (MG-63; Homo sapiens, MG-63): > 2 µM
- IC50 (BCPAP; Homo sapiens, BCPAP): > 2 µM
- IC50 (EPLC-272H; Homo sapiens, EPLC-272H): > 2 µM
- IC50 (RO82-W-1; Homo sapiens, RO82-W-1): > 2 µM
- IC50 (OAW-42; Homo sapiens, OAW-42): > 2 µM
- IC50 (NY; Homo sapiens, NY): > 2 µM
- IC50 (CAL-120; Homo sapiens, CAL-120): > 2 µM
- IC50 (HCC1937; Homo sapiens, HCC1937): > 2 µM
- IC50 (OE33; Homo sapiens, OE33): > 2 µM
- IC50 (KYSE-70 cell line; Homo sapiens, KYSE-70): > 2 µM
- IC50 (NCI-H1993; Homo sapiens, NCI-H1993): > 2 µM
- IC50 (SiHa; Homo sapiens, SiHa): > 2 µM
- IC50 (SBC-5; Homo sapiens, SBC-5): > 2 µM
- IC50 (KP-4; Homo sapiens, KP-4): > 2 µM
- IC50 (VM-CUB-1; Homo sapiens, VM-CUB-1): > 2 µM
- IC50 (BT-20; Homo sapiens, BT-20): > 2 µM
- IC50 (RMG-I; Homo sapiens, RMG-I): > 2 µM
- IC50 (SW780; Homo sapiens, SW780): > 2 µM
- IC50 (ME-180; Homo sapiens, ME-180): > 2 µM
- IC50 (RT-112; Homo sapiens, RT-112): > 2 µM
- IC50 (FTC-133; Homo sapiens, FTC-133): > 2 µM
- IC50 (YKG-1; Homo sapiens, YKG-1): > 2 µM
- IC50 (SKG-IIIa; Homo sapiens, SKG-IIIa): > 2 µM
- IC50 (TCC-SUP; Homo sapiens, TCC-SUP): > 2 µM
- IC50 (KU-19-19; Homo sapiens, KU-19-19): > 2 µM

Molecule: CO[C@H]1C[C@@H]2CC[C@@H](C)[C@@](O)(O2)C(=O)C(=O)N2CCCC[C@H]2C(=O)O[C@H]([C@H](C)C[C@@H]2CC[C@@H](OC(=O)C(C)(CO)CO)[C@H](OC)C2)CC(=O)[C@H](C)/C=C(\C)[C@@H](O)[C@@H](OC)C(=O)[C@H](C)C[C@H](C)/C=C/C=C/C=C/1C [TEMSIROLIMUS]
- IC50 (D-542MG; Homo sapiens, D-542MG): 0.0779 µM
- IC50 (RPMI-2650; Homo sapiens, RPMI-2650): 0.117 µM
- IC50 (NCI-H2291; Homo sapiens, NCI-H2291): > 0.2 µM
- IC50 (A673; Homo sapiens, A673): 0.161 µM
- IC50 (HTC-C3; Homo sapiens, HTC-C3): 0.0682 µM
- IC50 (A 172; Homo sapiens, A 172): > 0.2 µM
- IC50 (NCI-H1437; Homo sapiens, NCI-H1437): 0.103 µM
- IC50 (A-427; Homo sapiens, A-427): 0.183 µM
- IC50 (HuO-3N1; Homo sapiens, HuO-3N1): 0.023 µM
- IC50 (KYSE-270; Homo sapiens, KYSE-270): 0.164 µM
- IC50 (PA-1; Homo sapiens, PA-1): 0.00147 µM
- IC50 (H4; Homo sapiens, H4): 0.00107 µM
- IC50 (MG-63; Homo sapiens, MG-63): 0.134 µM
- IC50 (BCPAP; Homo sapiens, BCPAP): 0.0585 µM
- IC50 (EPLC-272H; Homo sapiens, EPLC-272H): > 0.2 µM
- IC50 (RO82-W-1; Homo sapiens, RO82-W-1): > 0.2 µM
- IC50 (OAW-42; Homo sapiens, OAW-42): > 0.2 µM
- IC50 (NY; Homo sapiens, NY): > 0.2 µM
- IC50 (CAL-120; Homo sapiens, CAL-120): > 0.2 µM
- IC50 (HCC1937; Homo sapiens, HCC1937): > 0.2 µM
- IC50 (OE33; Homo sapiens, OE33): > 0.2 µM
- IC50 (KYSE-70 cell line; Homo sapiens, KYSE-70): > 0.2 µM
- IC50 (NCI-H1993; Homo sapiens, NCI-H1993): > 0.2 µM
- IC50 (SiHa; Homo sapiens, SiHa): > 0.2 µM
- IC50 (SBC-5; Homo sapiens, SBC-5): 0.103 µM
- IC50 (KP-4; Homo sapiens, KP-4): 0.116 µM
- IC50 (VM-CUB-1; Homo sapiens, VM-CUB-1): 0.0127 µM
- IC50 (BT-20; Homo sapiens, BT-20): > 0.2 µM
- IC50 (RMG-I; Homo sapiens, RMG-I): > 0.2 µM
- IC50 (SW780; Homo sapiens, SW780): 0.00483 µM
- IC50 (ME-180; Homo sapiens, ME-180): 0.109 µM
- IC50 (RT-112; Homo sapiens, RT-112): 0.0471 µM
- IC50 (FTC-133; Homo sapiens, FTC-133): 0.0506 µM
- IC50 (YKG-1; Homo sapiens, YKG-1): > 0.2 µM
- IC50 (SKG-IIIa; Homo sapiens, SKG-IIIa): > 0.2 µM
- IC50 (TCC-SUP; Homo sapiens, TCC-SUP): 0.0823 µM
- IC50 (KU-19-19; Homo sapiens, KU-19-19): > 0.2 µM

Molecule: CS(=O)(=O)c1ccc(C(=O)Nc2ccc(Cl)c(-c3ccccn3)c2)c(Cl)c1 [VISMODEGIB]
- IC50 (D-542MG; Homo sapiens, D-542MG): 1.87 µM
- IC50 (RPMI-2650; Homo sapiens, RPMI-2650): > 10 µM
- IC50 (NCI-H2291; Homo sapiens, NCI-H2291): > 10 µM
- IC50 (A673; Homo sapiens, A673): > 10 µM
- IC50 (HTC-C3; Homo sapiens, HTC-C3): > 10 µM
- IC50 (A 172; Homo sapiens, A 172): > 10 µM
- IC50 (NCI-H1437; Homo sapiens, NCI-H1437): > 10 µM
- IC50 (A-427; Homo sapiens, A-427): > 10 µM
- IC50 (HuO-3N1; Homo sapiens, HuO-3N1): 9.6 µM
- IC50 (KYSE-270; Homo sapiens, KYSE-270): > 10 µM
- IC50 (PA-1; Homo sapiens, PA-1): > 10 µM
- IC50 (H4; Homo sapiens, H4): > 10 µM
- IC50 (MG-63; Homo sapiens, MG-63): > 10 µM
- IC50 (BCPAP; Homo sapiens, BCPAP): > 10 µM
- IC50 (EPLC-272H; Homo sapiens, EPLC-272H): > 10 µM
- IC50 (RO82-W-1; Homo sapiens, RO82-W-1): > 10 µM
- IC50 (OAW-42; Homo sapiens, OAW-42): > 10 µM
- IC50 (NY; Homo sapiens, NY): > 10 µM
- IC50 (CAL-120; Homo sapiens, CAL-120): > 10 µM
- IC50 (HCC1937; Homo sapiens, HCC1937): > 10 µM
- IC50 (OE33; Homo sapiens, OE33): > 10 µM
- IC50 (KYSE-70 cell line; Homo sapiens, KYSE-70): > 10 µM
- IC50 (NCI-H1993; Homo sapiens, NCI-H1993): > 10 µM
- IC50 (SiHa; Homo sapiens, SiHa): > 10 µM
- IC50 (SBC-5; Homo sapiens, SBC-5): > 10 µM
- IC50 (KP-4; Homo sapiens, KP-4): > 10 µM
- IC50 (VM-CUB-1; Homo sapiens, VM-CUB-1): > 10 µM
- IC50 (BT-20; Homo sapiens, BT-20): > 10 µM
- IC50 (RMG-I; Homo sapiens, RMG-I): > 10 µM
- IC50 (SW780; Homo sapiens, SW780): > 10 µM
- IC50 (ME-180; Homo sapiens, ME-180): > 10 µM
- IC50 (RT-112; Homo sapiens, RT-112): > 10 µM
- IC50 (FTC-133; Homo sapiens, FTC-133): > 10 µM
- IC50 (YKG-1; Homo sapiens, YKG-1): > 10 µM
- IC50 (SKG-IIIa; Homo sapiens, SKG-IIIa): > 10 µM
- IC50 (TCC-SUP; Homo sapiens, TCC-SUP): > 10 µM
- IC50 (KU-19-19; Homo sapiens, KU-19-19): > 10 µM

Molecule: CISPLATIN
- IC50 (D-542MG; d-542mg): 3.26 µM
- IC50 (RPMI-2650; rpmi-2650): 75.5 µM
- IC50 (NCI-H2291; nci-h2291): 458 µM
- IC50 (A673; a673): 2.17 µM
- IC50 (HTC-C3; htc-c3): 4.49 µM
- IC50 (A 172; a 172): 78.9 µM
- IC50 (NCI-H1437; nci-h1437): 84.4 µM
- IC50 (A-427; a-427): 350 µM
- IC50 (HuO-3N1; huo-3n1): 8.87 µM
- IC50 (KYSE-270; kyse-270): 9.08 µM
- IC50 (PA-1; pa-1): 0.79 µM
- IC50 (H4; h4): 4.71 µM
- IC50 (MG-63; mg-63): 100 µM
- IC50 (BCPAP; bcpap): 228 µM
- IC50 (EPLC-272H; eplc-272h): 13 µM
- IC50 (RO82-W-1; ro82-w-1): 72.1 µM
- IC50 (OAW-42; oaw-42): 8.63 µM
- IC50 (NY; ny): 28.2 µM
- IC50 (CAL-120; cal-120): 264 µM
- IC50 (HCC1937; hcc1937): 137 µM
- IC50 (OE33; oe33): 22.5 µM
- IC50 (KYSE-70 cell line; kyse-70): 48.7 µM
- IC50 (NCI-H1993; nci-h1993): 1350 µM
- IC50 (SiHa; siha): 17 µM
- IC50 (SBC-5; sbc-5): 70.1 µM
- IC50 (KP-4; kp-4): 11.7 µM
- IC50 (VM-CUB-1; vm-cub-1): 6.3 µM
- IC50 (BT-20; bt-20): 213 µM
- IC50 (RMG-I; rmg-i): 1150 µM
- IC50 (SW780; sw780): 14 µM
- IC50 (ME-180; me-180): 55.2 µM
- IC50 (RT-112; rt-112): 14.3 µM
- IC50 (FTC-133; ftc-133): 4.77 µM
- IC50 (YKG-1; ykg-1): 10.3 µM
- IC50 (SKG-IIIa; skg-iiia): 7.05 µM
- IC50 (TCC-SUP; tcc-sup): 8.5 µM
- IC50 (KU-19-19; ku-19-19): 10.1 µM
